Measured values published in the NIST ThermoML archive (doi:10.1016/j.jct.2012.04.020).
Where “and” joins values, the source holds several entries; their conditions need not be identical. Identical values can stand only once. ± gives the expanded uncertainty stated by the source.

Assay: mn = molality of the nth substance listed, in mol/kg
Conditions: 101 kPa, Liquid; for speed of sound: Sing-around technique in a fixed-path interferometer; for mass density: Vibrating tube method

O=P([O-])([O-])O.[K+].[K+] [dipotassium hydrogen phosphate] + O
Conditions	mass density, 288.15 K	mass density, 298.15 K	mass density, 308.15 K	mass density, 318.15 K	speed of sound, 288.15 K	speed of sound, 298.15 K	speed of sound, 308.15 K	speed of sound, 318.15 K
m1 = 0.2	1031.93 ± 0.15 kg/m3 and 1029.08 ± 0.14 kg/m3	1029.32 ± 0.14 kg/m3 and 1026.51 ± 0.14 kg/m3	1025.9 ± 0.14 kg/m3 and 1023.13 ± 0.14 kg/m3	1021.79 ± 0.14 kg/m3 and 1018.99 ± 0.14 kg/m3	1502.7 ± 1 m/s and 1500 ± 1 m/s	1530.6 ± 1 m/s and 1528.2 ± 1 m/s	1551.8 ± 1 m/s and 1549.3 ± 1 m/s	1566.8 ± 1 m/s and 1564.2 ± 1 m/s
m1 = 0.4	1057.5 ± 0.16 kg/m3 and 1061.39 ± 0.16 kg/m3	1054.52 ± 0.16 kg/m3 and 1058.35 ± 0.16 kg/m3	1054.54 ± 0.16 kg/m3 and 1050.82 ± 0.16 kg/m3	1050.25 ± 0.16 kg/m3 and 1046.5 ± 0.15 kg/m3	1531 ± 1 m/s and 1535 ± 1 m/s	1557 ± 1 m/s and 1560.8 ± 1 m/s	1580.1 ± 1 m/s and 1576.5 ± 1 m/s	1593.7 ± 1 m/s and 1590.2 ± 1 m/s
m1 = 0.6	1084.12 ± 0.18 kg/m3 and 1093.21 ± 0.18 kg/m3	1080.78 ± 0.18 kg/m3 and 1089.76 ± 0.18 kg/m3	1076.82 ± 0.17 kg/m3 and 1085.71 ± 0.18 kg/m3	1072.29 ± 0.17 kg/m3 and 1081.11 ± 0.18 kg/m3	1560.3 ± 1 m/s and 1570.8 ± 1 m/s	1584.4 ± 1 m/s and 1594.5 ± 1.1 m/s	1602.3 ± 1.1 m/s and 1611.8 ± 1.1 m/s	1614.7 ± 1.1 m/s and 1623.6 ± 1.1 m/s
m1 = 0.8	1113.94 ± 0.2 kg/m3 and 1116.48 ± 0.2 kg/m3	1110.27 ± 0.19 kg/m3 and 1112.77 ± 0.2 kg/m3	1106.04 ± 0.19 kg/m3 and 1108.53 ± 0.19 kg/m3	1101.38 ± 0.19 kg/m3 and 1103.81 ± 0.19 kg/m3	1594.2 ± 1.1 m/s and 1597.3 ± 1.1 m/s	1616.3 ± 1.1 m/s and 1619.1 ± 1.1 m/s	1632.4 ± 1.1 m/s and 1635 ± 1.1 m/s	1643.2 ± 1.1 m/s and 1645.5 ± 1.1 m/s

C[C@H](N)C(=O)O [(S)-2-aminopropanoic acid] + O
mass density [kg/m3]
Conditions	m1 = 0.05014	m1 = 0.15	m1 = 0.2505	m1 = 0.303	m1 = 0.3456
288.15 K	1000.65 ± 0.13	1003.65 ± 0.13	1006.52 ± 0.13	1007.97 ± 0.13	1009.14 ± 0.13
298.15 K	998.59 ± 0.13	1001.56 ± 0.13	1004.42 ± 0.13	1005.85 ± 0.13	1006.98 ± 0.13
308.15 K	995.554 ± 0.13	998.483 ± 0.13	1001.31 ± 0.13	1002.74 ± 0.13	1003.86 ± 0.13
318.15 K	991.648 ± 0.13	994.399 ± 0.13	997.067 ± 0.13	998.365 ± 0.13	999.359 ± 0.13

NCC(=O)O [2-aminoacetic acid] + O
Conditions	mass density, m1 = 0.04978 [kg/m3]	mass density, m1 = 0.1472 [kg/m3]	mass density, m1 = 0.2507 [kg/m3]	mass density, m1 = 0.3018 [kg/m3]	mass density, m1 = 0.3521 [kg/m3]	speed of sound, m1 = 0.04978 [m/s]	speed of sound, m1 = 0.1472 [m/s]	speed of sound, m1 = 0.2507 [m/s]	speed of sound, m1 = 0.3018 [m/s]	speed of sound, m1 = 0.3521 [m/s]
288.15 K	1000.74 ± 0.13	1003.87 ± 0.13	1007.09 ± 0.13	1008.62 ± 0.13	1010.01 ± 0.13	1484.9 ± 1	1490.1 ± 1	1495.3 ± 1	1497.7 ± 1	1500 ± 1
298.15 K	998.674 ± 0.13	1001.73 ± 0.13	1004.79 ± 0.13	1006.26 ± 0.13	1007.54 ± 0.13	1499 ± 1	1503.6 ± 1	1508.3 ± 1	1510.3 ± 1	1512.3 ± 1
308.15 K	995.639 ± 0.13	998.704 ± 0.13	1001.69 ± 0.13	1003 ± 0.13	1004.15 ± 0.13	1521.8 ± 1	1526 ± 1	1530.5 ± 1	1532.4 ± 1	1534.3 ± 1
318.15 K	991.801 ± 0.13	994.854 ± 0.13	997.838 ± 0.13	999.157 ± 0.13	1000.43 ± 0.13	1538.6 ± 1	1542.8 ± 1	1547 ± 1	1549.3 ± 1	1550.9 ± 1
